Results: patent US5403726A, “Enzymatic process for producing a galactosylβ1,3glycal disaccaride using β-galactosidase” (priority 1992, dated 1995)

Target: β-galactosidase (E. coli) (Escherichia coli, UniProt P00722)
Assay: β-galactosidase-mediated coupling reaction with glycal as potential acceptor
Type: biochemical
Details: donor GalβpNO2 Ph (Compound 1); no reaction product
Excerpt: To increase the yield of disaccharide, activated donors were used illustratively here in the kinetic method of glycosidic bond formation. [Nilsson, I. Trends Biotechnol., 6:256 (1988) and the citations therein]. Disaccharide formation was initially examined using commercially available E. coli β-galactosidase [EC 3.2.1.23] and 4-nitrophenyl β-galactopyranoside (Compound 1) as the galactose donor and glucal (Compound 2) [Hodgson, Biotechnology, 9:609 (1991)] as the acceptor. The reaction was monitored by thin layer chromatograph (TLC). After no additional nitrophenyl galactoside appeared to be consumed (19-26 hours), the reaction was terminated.
In a typical procedure, Compound 1 (77 mg, 0.26 mmol) and […] (54 mg, 0.36 mmol) were combined at 25° C. with E. coli β-galactosidase (75 units) in 4 mL of a 0.07 M PIPES/0.2M NaOAc/0.1M EDTA solution at pH 6.5. The progress of the reaction was monitored by TLC (silica gel, 7:2:1 iPrOH--NH4 OH--H2 O). After 26 hours, the solvent was removed in vacuo and the residue treated with acetic anhydride (2 mL) and pyridine (2 mL). After an additional 12 hours, the mixture was concentrated in vacuo and the residue purified by silica gel chromatography (2:3 ethyl acetate-hexanes) to afford a 2.3:1 mixture of β-1,3 and β-1,6 isomers (72 mg, 50 percent). […] The position of the glycoside linkage was unambiguously determined by ^1 H NMR decoupling studies. […]

Chain of β-galactosidase (E. coli) (P00722 whole entry): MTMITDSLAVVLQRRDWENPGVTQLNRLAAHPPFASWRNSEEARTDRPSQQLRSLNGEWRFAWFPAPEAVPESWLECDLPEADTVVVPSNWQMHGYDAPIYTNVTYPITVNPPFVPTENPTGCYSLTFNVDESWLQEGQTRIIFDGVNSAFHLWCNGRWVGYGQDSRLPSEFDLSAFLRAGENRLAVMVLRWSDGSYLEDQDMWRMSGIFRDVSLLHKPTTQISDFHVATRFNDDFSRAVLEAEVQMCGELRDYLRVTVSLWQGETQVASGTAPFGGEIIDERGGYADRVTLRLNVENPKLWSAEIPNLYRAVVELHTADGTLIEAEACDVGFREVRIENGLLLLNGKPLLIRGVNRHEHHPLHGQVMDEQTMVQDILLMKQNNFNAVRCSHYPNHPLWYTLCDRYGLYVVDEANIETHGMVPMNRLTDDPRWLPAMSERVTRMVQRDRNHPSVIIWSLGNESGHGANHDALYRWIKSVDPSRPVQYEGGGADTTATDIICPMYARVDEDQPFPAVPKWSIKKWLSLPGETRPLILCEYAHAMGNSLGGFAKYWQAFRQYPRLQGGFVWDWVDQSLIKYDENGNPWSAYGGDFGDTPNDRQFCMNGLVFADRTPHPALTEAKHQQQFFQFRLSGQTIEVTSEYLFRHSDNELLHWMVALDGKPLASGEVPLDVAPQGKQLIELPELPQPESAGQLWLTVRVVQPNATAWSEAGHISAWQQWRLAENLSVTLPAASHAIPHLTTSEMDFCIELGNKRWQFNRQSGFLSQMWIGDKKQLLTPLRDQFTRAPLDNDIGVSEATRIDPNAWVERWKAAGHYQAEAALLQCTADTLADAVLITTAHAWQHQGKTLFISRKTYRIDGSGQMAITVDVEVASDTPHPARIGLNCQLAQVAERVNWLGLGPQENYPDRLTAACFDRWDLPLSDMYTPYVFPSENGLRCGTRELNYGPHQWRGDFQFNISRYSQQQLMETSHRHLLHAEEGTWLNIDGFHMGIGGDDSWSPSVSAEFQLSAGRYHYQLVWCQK

## OC[C@H]1OC=C[C@@H](O)[C@H]1O [Galactal]
  behaviour as potential acceptor in the β-galactosidase coupling reaction (inhibitor): acted as an inhibitor
